These results are taken from patent publication US5770713A, “Phosphorothioate triester oligonucleotides and method of preparation” (Centre National de la Recherche Scientifique, priority 1993, dated 1998).

Data set [1] is described as follows: Stability of dimers in cellular extract (CEM cells), HPLC. It counts as in vitro ADME. As to conditions: 37° C., C0 =5×10^-5 M; for % PS^- (molar fraction of phosphorothioate diester dinucleoside formed, relative to initial quantity of phosphorothioate triester dinucleoside): after complete decomposition of the starting triester; for half-life at 50 µM: human, cem cell extract, read-out: t1/2 (time at the end of which half of the starting product has decomposed). Here is the method: (§1) Distilled water is purified on a MilliQ system (Waters-Millipore), Acetonitrile is of HPLC-far UV quality (Fisons), Ammonium acetate is of "analytical" quality (MERCK), The culture media are composed of 90% of RPMI 1640 and 10% of heat-inactivated fetal calf serum (GIBCO), The cellular extracts were kindly supplied by a person -M. Aubertin (University of Strasbourg I). They are prepared in the following way: CEM cells in the exponential growth phase are separated from the culture medium by centrifugation (10^4 g, 4 min, […]). The residue (approximately100 μl, 5×10^7 cells) is dissolved in 2 ml of buffer (Tris-HCl 140 mM, pH=7.4) and sonicated. The lysate is centrifuged (10^5 g, 1 h, 4°) to eliminate membranes, organelles and chromatin. Two types of eluents were utilized for the HPLC:
(§2) A 10^-2 M solution of the compound to be studied is prepared in DMSO.
(§3) This solution is diluted with water to give a parent solution of concentration 5×10^-4 M.
b) Study of stability in cellular extract: 100 μl of parent solution of the compound to be studied are added to 900 μl of cellular extract which has previously been filtered on a Millex GV sterile filter (Millipore, 0.22 μm). After mixing, fractions (100 μl) are distributed in Eppendorf tubes. These tubes are placed in an oven at 37° C. and removed as a function of the kinetic development. The samples are immediately analyzed by HPLC.
(§4) tl/2 =time at the end of which half of the starting product has decomposed
(§5) % PO^- , % PS^- =molar fractions of phosphodiester dinucleoside and of phosphorothioate diester dinucleoside, expressed in relation to the initial quantity of phosphorothioate triester dinucleoside.
(§6) The percentage of PS^- corresponds to the quantity of phosphorothioate diester dinucleoside formed after complete decomposition of the starting phosphorothioate triester dinucleoside (considering that the phosphorothioate diester dinucleoside is stable under the condition used and accumulates).

A short description of data set [2]: Stability of dimers in culture medium (RPMI + 10% serum), HPLC. To be noted: 37° C., C0 =5×10^-5 M; for % PS^- (molar fraction of phosphorothioate diester dinucleoside formed, relative to initial quantity of phosphorothioate triester dinucleoside): after complete decomposition of the starting triester; for % PO^- (molar fraction of phosphodiester dinucleoside, relative to initial quantity of phosphorothioate triester dinucleoside): calculated as 100-% PS^- formed; for half-life at 50 µM: read-out: t1/2 (time at the end of which half of the starting product has decomposed) (converted). It counts as in vitro ADME, fetal calf. How it is done: as §1, §2, §3
a) Study of stability in culture medium:
100 μl of parent solution of the compound to be studied are added to 900 μl of culture medium which has previously been filtered on a Millex GV sterile filter (Millipore, 0.22 μm). After mixing, fractions (100 μl) are distributed in sterile Eppendorf tubes. These tubes are placed in an oven at 37° C. and removed as a function of the kinetic development. The samples are immediately analyzed by HPLC (volume injected: 80 μl) or preserved at -25° C. with a view to subsequent analysis.
as §4, §5, §6

The nature of data set [3]: Stability of oligonucleotides in culture medium (RPMI + 10% serum), HPLC. It is filed as in vitro ADME, fetal calf. To be noted: 37° C. Here is the method:
as §1
(§7) The general conditions are the same as those used for the study of stability of the phosphorothioate triester dimers, as far as the method, the equipment and the chemical products are concerned. […]
30 μl of parent solution of oligonucleotide (being approximately 1.5 A260 units) are removed, which are added to 1470 μl of culture medium which has previously been filtered on a sterile Millex GV filter (Millipore 0.22 μm). […] The samples are immediately analyzed by HPLC (volume injected 80 μl) or preserved at -25° C. with a view to subsequent analysis.

Data set [4] is described as follows: Stability of oligonucleotides in cellular extract (CEM cells), HPLC. To be noted: 37° C. It is filed as in vitro ADME. Here is the method:
as §1, §7
10 μl of oligonucleotide parent solution are added to 990 μl of cellular extract which have previously been filtered on a sterile Millex GV filter (Millipore, 0.22 μm). After mixing, fractions (100 μl) are distributed in sterile Eppendorf tubes, placed in an oven at 37° C., sampled at different times and immediately analyzed by HPLC.

`CC(=O)SCSP(=O)(OC[C@H]1O[C@@H](n2cc(C)c(=O)[nH]c2=O)C[C@@H]1O)O[C@H]1C[C@H](n2cc(C)c(=O)[nH]c2=O)O[C@@H]1CO` (stereo partly drawn) [Compound 4c, O-(Thymidin-3'-yl) O-(thymidin-5'-yl) S-(acetylthiomethyl) phosphorothioate]: in data set [1], the “% PS^- (molar fraction of phosphorothioate diester dinucleoside formed, relative to initial quantity of phosphorothioate triester dinucleoside)” value was 100% and the half-life at 50 µM fell in the range of 5 to 10 min. Further, in data set [2], the “% PS^- (molar fraction of phosphorothioate diester dinucleoside formed, relative to initial quantity of phosphorothioate triester dinucleoside)” value was 80%; the “% PO^- (molar fraction of phosphodiester dinucleoside, relative to initial quantity of phosphorothioate triester dinucleoside)” value is on record as 20%; the half-life at 50 µM was 60 min.

Take “6b: completely alkylated phosphorothioate dodecamer 6b; from d(CP(S) Ap(s) Cp(s) Cp(s) Cp(s) Ap(s) Ap(s) Tp(s) Tp(s) Cp(s) Tp(s) G) SEQ. ID. NO: 1 (CACCCAATTCTG; DNA, backbone not given here; all phosphorothioate linkages alkylated) [Compound 6b, completely alkylated phosphorothioate dodecamer 6b; ID; NO: 1]”: the “t1/2 of disappearance of the starting oligonucleotide” value in data set [3] stood at 55 min. For the same compound, in data set [4], the “t1/2 of disappearance of the starting oligonucleotide” value is less than 2 min and the “t1/2 of formation of the totally deprotected oligonucleotide” value was determined as 25 min.

`CC(=O)SCCSP(=O)(OC[C@H]1O[C@@H](n2cc(C)c(=O)[nH]c2=O)C[C@@H]1O)O[C@H]1C[C@H](n2cc(C)c(=O)[nH]c2=O)O[C@@H]1CO` (stereo partly drawn) [Compound 4b, O-(Thymidin-3'-yl) O-(thymidin-5'-yl) S-(acetylthioethyl) phosphorothioate]: in data set [1], the “% PS^- (molar fraction of phosphorothioate diester dinucleoside formed, relative to initial quantity of phosphorothioate triester dinucleoside)” value is listed as 100% and the half-life at 50 µM stood at 10 min. Further, in data set [2], the “% PS^- (molar fraction of phosphorothioate diester dinucleoside formed, relative to initial quantity of phosphorothioate triester dinucleoside)” value is 50%; the “% PO^- (molar fraction of phosphodiester dinucleoside, relative to initial quantity of phosphorothioate triester dinucleoside)” value is 50%; the half-life at 50 µM was 420 min.

`Cc1cn([C@H]2C[C@H](OP(=O)(OC[C@H]3O[C@@H](n4cc(C)c(=O)[nH]c4=O)C[C@@H]3O)SCOC(=O)C(C)(C)C)[C@@H](CO)O2)c(=O)[nH]c1=O` (stereo partly drawn) [Compound 4a, O-(Thymidin-3'-yl) O-(thymidin-5'-yl) S-(pivaloyloxymethyl) phosphorothioate]: in data set [1], the “% PS^- (molar fraction of phosphorothioate diester dinucleoside formed, relative to initial quantity of phosphorothioate triester dinucleoside)” value turned out to be 100% and the half-life at 50 µM amounted to 40 min. In data set [2], the “% PS^- (molar fraction of phosphorothioate diester dinucleoside formed, relative to initial quantity of phosphorothioate triester dinucleoside)” value is on record as 20%; the “% PO^- (molar fraction of phosphodiester dinucleoside, relative to initial quantity of phosphorothioate triester dinucleoside)” value was 80%; the half-life at 50 µM was 360 min.
